Data reported in ChEMBL document CHEMBL2434869, “Pyrazole containing natural products: synthetic preview and biological significance” (Eur J Med Chem, 2013).

What was measured:
[1] = Toxicity in white mouse; type: organism-based; conditions: in vivo
[2] = Cytotoxicity against mouse EAC assessed as growth inhibition; type: functional, Ehrlich
X5563 = assay: Cytotoxicity against mouse X5563 cells assessed as growth inhibition; type: functional
[3] = Cytotoxicity against mouse Gardner lymphosarcoma cells assessed as growth inhibition; type: functional
[4] = Cytotoxicity against mouse mammary carcinoma 755 cells assessed as growth inhibition; type: functional
[5] = Cytotoxicity against rat Walker 256 cells assessed as growth inhibition; type: functional

| Compound | MTD [1] | growth inhibition (GI) [2] | growth inhibition (GI) (X5563) | growth inhibition (GI) [3] | growth inhibition (GI) [4] | growth inhibition (GI) [5] |
| --- | --- | --- | --- | --- | --- | --- |
| COc1[nH]nc2nncnc12 | 50 mg/kg | 83% | – | – | – | – |
| COc1nnc2n(C)ncnc1-2 [PSEUDOIODININE] | 20 mg/kg | 64% | – | – | – | – |
| NC(=O)c1ncn([C@@H]2O[C@H](CO)[C@@H](O)[C@H]2O)n1 [RIBAVIRIN] | – | – | >50% | >50% | >50% | >50% |
| COc1nnc2nn(C)cnc1-2 | 0.2 mg/kg | 40% | – | – | – | – |
